This is an account of results in patent US20080096868A1, “1,4 Substituted Pyrazolopyrimidines as Kinase Inhibitors” (priority 2004, published 2008).

pIC50: −log10 of the molar value.

This experiment concerns the target T1, EphB4 kinase (Homo sapiens, UniProt P54760).
T1 construct: made in house; host or cells: Sf9 or Sf21 insect cells (baculovirus)
T1 sequence (P54760 566-987): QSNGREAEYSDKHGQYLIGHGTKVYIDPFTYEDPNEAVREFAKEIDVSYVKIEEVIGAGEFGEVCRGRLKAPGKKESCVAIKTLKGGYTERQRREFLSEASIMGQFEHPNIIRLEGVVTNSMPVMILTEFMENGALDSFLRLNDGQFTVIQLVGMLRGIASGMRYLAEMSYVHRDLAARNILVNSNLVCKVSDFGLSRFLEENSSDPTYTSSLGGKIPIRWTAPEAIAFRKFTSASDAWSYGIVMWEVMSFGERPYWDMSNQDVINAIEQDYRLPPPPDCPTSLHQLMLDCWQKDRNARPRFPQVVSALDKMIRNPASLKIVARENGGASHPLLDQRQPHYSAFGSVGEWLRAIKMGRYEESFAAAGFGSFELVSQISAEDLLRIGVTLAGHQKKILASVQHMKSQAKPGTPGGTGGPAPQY
Briefly: Inhibition of EphB4 kinase activity (33P incorporation into poly(Glu,Tyr), filter assay). Type of experiment: biochemical. The note with it: purified GST-EphB4, 2.0-3.0 μM ATP, poly(Glu,Tyr) 4:1; read-out: IC50 (μmol/l), Inhibition of EphB4 kinase. From the text: Generation of Bac-to-Bac™ (Invitrogen Life Technologies, Basel, Switzerland) GST-fusion expression vectors: Entire cytoplasmatic coding regions of the EphB-class are amplified by PCR from cDNA libraries derived from human placenta or brain, respectively. Recombinant baculovirus are generated that express the amino acid region 566-987 of the human EphB4 receptor (SwissProt Database, Accession No. P54760). GST sequence is cloned into pFastBac1® vector (Invitrogen Life Technologies, Basel, Switzerland) and PCR amplified. cDNAs encoding EphB4-receptor domains, respectively are cloned in frame 3′prime to the GST sequence into this modified FastBac1 vector to generate pBac-to-Bac™ donor vectors. Single colonies arising from the transformation are inoculated to give overnight cultures for small scale plasmid preparation. […] By automated sequencing the inserts and approximately 50 bp of the flanking vector sequences are confirmed on both strands.
Production of viruses: Viruses for each of the kinases are made according to the protocol supplied by GIBCO if not stated otherwise. In brief, transfer vectors containing the kinase domains are transfected into the DH10Bac cell line (GIBCO) and plated on selective agar plates. Colonies without insertion of the fusion sequence into the viral genome (carried by the bacteria) are blue. Single white colonies are picked and viral DNA (bac-mid) isolated from the bacteria by standard plasmid purification procedures. Sf9 cells or Sf21 cells are then transfected in 25 cm^2 flasks with the viral DNA using Cellfectin reagent according to the protocol. […]
Protein kinase assays: The activities of protein kinases are assayed in the presence or absence of inhibitors, by measuring the incorporation of ^33P from [γ^33P]ATP into a polymer of glutamic acid and tyrosine (poly(Glu,Tyr)) as a substrate. […] Membranes are counted after drying at ambient temperature, mounting in Packard TopCount96-well frame, and addition of 10 μL/well of Microscint™ (Packard). […]
`COc1ccc(-n2ncc3c(Nc4cc(F)ccc4C)ncnc32)cc1` [Example 23, (5-Fluoro-2-methyl-phenyl)-[1-(4-methoxy-phenyl)-1H-pyrazolo[3,4-d]pyrimidin-4-yl]-amine]: the pIC50 is 6.30.
The same measure for `Cc1cccc(C)c1Nc1nc(CCCN(C)C)nc2c1cnn2-c1ccccc1` [Example 27, [6-(3-Dimethylamino-propyl)-1-phenyl-1H-pyrazolo[3,4-d]pyrimidin-4-yl]-(2,6-dimethyl-phenyl)-amine]: 6.40.
For the compound `COc1ccc(-n2ncc3c(Nc4ccccc4C)ncnc32)cc1` [Example 21, [1-(4-Methoxy-phenyl)-1H-pyrazolo[3,4-d]pyrimidin-4-yl]-o-tolyl-amine], the pIC50 was 6.80.
